Reference: patent US11352352B2, “Aminopyrimidine compound, preparation method therefor and use thereof” (BEIJING ADAMADLE BIOTECHNOLOGY LIMITED LIABILITY COMPANY, priority 2017, dated 2022)

Legend:
Assay in all cases: Cell proliferation inhibition experiment, CellTiter-Glo (CTG) method
Type in all cases: cell-based
A-431 = details: Homo sapiens, A-431, 72 h, A-431 cells, 3 days
Experimental: (§1) Cell Proliferation Inhibition Experiment
(§2) Compounds were tested in the selected cell lines, and solvent is set as control, nine concentrations were detected with three parallel wells for each concentration.
(§3) 2. Reagents and Materials • 1) fetal bovine serum FBS (GIBCO, Cat #10099-141) • 2) CellTiter-Glo® Luminescent Cell Viability Assay (Promega, Cat #G7572) • 3) 96-well plate with flat clear bottom, black wall plates (Corning®, Cat #3340)
(§4) The first day: Incubation and plant of cells • 1) Cells in logarithmic growth phase were harvested and counted by cell counter. Cell viability was detected by trypan blue exclusion assay to ensure that the viability of each cell line was above 90%. • 2) Cell concentration was adjusted by diluting complete culture medium, and 90 μL cell suspension was added to a 96-well plate (T0 plate and drug plate to be tested) to make the cell density reach the specified concentration. • 3) Cells in 96-well plate were incubated overnight at condition of 37° C., 5% CO2 and 95% humidity.
(§5) The second day: Reading T0 plate • 1) 10 μL culture medium was added to T0 plate. • 2) CTG reagent was melt, while the cell plate was balanced to room temperature for 30 minutes. • 3) The same volume of CTG solution was added to each well. • 4) The cell plate was vibrated for 2 minutes on an orbital shaker to lyze the cells. • 5) The cell plate was placed at room temperature for 10 minutes to stabilize the cold light signal. • 6) The cold light value was read with EnVision.
Drug Addition • 1) Drug dilution. The compounds to be tested were dissolved and packaged, then a gradient elution was performed to obtain a solution diluted 10 times. • 2) Drug addition. […] drug solution was added into each well of the 96-well plate, which was inoculated cells, three parallel wells were set for each cell concentration. The highest concentration of the compounds to be tested on A-431 was 30 μM, nine concentrations was set with 3 times dilution; while the highest concentration on NCI-H1975 and PC-9 was 1.111 μM, 9 concentrations was set with 3 times dilution. • 3) Culture. Cells in 96-well plates in which drugs have been added were cultured at condition of 37° C., 5% CO2 and 95% humidity for 3 days, and then CTG assay was performed respectively.
(§6) The third day: reading plate at the terminal • 1) CTG reagent was melt, while the cell plate was balanced to room temperature for 30 minutes. • 2) The same volume of CTG solution was added to each well. • 3) The cell plate was vibrated for 2 minutes on an orbital shaker to lyze the cells. • 4) The cell plate was placed at room temperature for 10 minutes to stabilize the cold light signal. • 5) The cold light value was read with EnVision
(§7) Data were analyzed using GraphPad Prism 5.0 software, and non-linear S curve regression was used for fitting the data to give a dose-effect curve, IC50 value was calculated accordingly. Cell Survival Rate (%)=(Lumdrugs−Lumcontrol)/(Lumcell−Lumcontrol)×100%.

NCI-H1975 = details: for IC50: Homo sapiens, NCI-H1975, 72 h, NCI-H1975 cells, CTG, 3 days; for A-431/NCI-H1975 Selectivity: ratio of A-431 IC50 to NCI-H1975 IC50
Experimental: as §1, §2, §3, §4, §5
(§8) Drug Addition • 1) Drug dilution. The compounds to be tested were dissolved and packaged, then a gradient elution was performed to obtain a solution diluted 10 times. • 2) Drug addition. […] drug solution was added into each well of the 96-well plate, which was inoculated cells, three parallel wells were set for each cell concentration.
as §6, §7

PC-9 = details: Homo sapiens, PC-9, 72 h, PC-9 cells, 3 days
Experimental: as §1, §2, §3, §4, §5, §8, §6, §7

| Compound | IC50 (A-431) [nM] | IC50 (NCI-H1975) [nM] | IC50 (PC-9) [nM] | A-431/NCI-H1975 Selectivity (NCI-H1975) |
| --- | --- | --- | --- | --- |
| C=CC(=O)Nc1cc(Nc2cc(-c3ccc4cnn(C)c4c3)ncn2)c(OC)cc1N1CCN(C)CC1 [compound 43] | 1140 | 29.8 | 16.7 | 38.3 |
| C=CC(=O)Nc1cc(Nc2cc(-c3ccc4cnn(C)c4c3)ncn2)c(OC)cc1N1CCN(C)C[C@H]1C [compound 44] | 1600 | 102 | 32.8 | 15.7 |
| C=CC(=O)Nc1cc(Nc2cc(-c3ccc4cnn(C)c4c3)ncn2)c(OC)cc1N1CCC(OC)CC1 [compound 45] | 2610 | 137 | 23.6 | 19.0 |
| C=CC(=O)Nc1cc(Nc2cc(-c3ccc4cnn(C)c4c3)ncn2)c(OC)cc1N1CCN(C2CCOCC2)CC1 [compound 46] | 1250 | 82.8 | 32.7 | 15.1 |
| C=CC(=O)Nc1cc(Nc2cc(-c3ccc4cnn(C)c4c3)ncn2)c(OC)cc1N1CCCN(C)CC1 [compound 47] | 671 | 49 | 34 | 13.7 |
| C=CC(=O)Nc1cc(Nc2cc(-c3ccc4cnn(C)c4c3)ncn2)c(OC)cc1N1CCN(CC)[C@@H](C)C1 [compound 48] | 1390 | 67.2 | 49.7 | 20.7 |
| C=CC(=O)Nc1cc(Nc2cc(-c3ccc4cnn(C)c4c3)ncn2)c(OC)cc1N1CCN(CC)[C@H](C)C1 [compound 49] | 1470 | 85.6 | 88 | 17.2 |
| C=CC(=O)Nc1cc(Nc2cc(-c3ccc4cnn(C)c4c3)ncn2)c(OC)cc1N1CCN(C)[C@@H](C)C1 [compound 50] | 1080 | 59.2 | 47.5 | 18.2 |
| C=CC(=O)Nc1cc(Nc2cc(-c3ccc4cnn(C)c4c3)ncn2)c(OC)cc1N1CCC(N2CCN(C)CC2)CC1 [compound 52] | 615 | 41.7 | 39 | 14.7 |
| C=CC(=O)Nc1cc(Nc2cc(-c3ccc4cnn(C)c4c3)ncn2)c(OC)cc1N1CCC(C2CCN(C)CC2)CC1 [compound 53] | 1250 | 151 | 67.9 | 8.3 |
| C=CC(=O)Nc1cc(Nc2cc(-c3ccc4cnn(C)c4c3)ncn2)c(OC)cc1N(C)C1CCN(C)CC1 [compound 54] | 1310 | 111 | 88.2 | 11.8 |
| C=CC(=O)Nc1cc(Nc2cc(-c3ccc4cnn(C)c4c3)ncn2)c(OC)cc1N1CCC(N2CCOCC2)CC1 [compound 55] | 586 | 32.2 | 3.6 | – |
| C=CC(=O)Nc1cc(Nc2cc(-c3ccc4c(C)nn(C)c4c3)ncn2)c(OC)cc1N1CC(C)N(C)C(C)C1 (stereo not drawn) [compound 56] | 1230 | 113 | 56.7 | 10.9 |
| C=CC(=O)Nc1cc(Nc2cc(-c3ccc4ncsc4c3)ncn2)c(OC)cc1N1CCC(N2CCN(C)CC2)CC1 [compound 64] | 690 | 13.1 | 5.4 | 52.6 |

Further lines, with some results ahead:

| IC50 (A-431) [nM] | IC50 (NCI-H1975) [nM] | IC50 (PC-9) [nM] | Compound | A-431/NCI-H1975 Selectivity (NCI-H1975) |
| --- | --- | --- | --- | --- |
| 686 | 25.8 | 34.6 | C=CC(=O)Nc1cc(Nc2cc(-c3ccc4cnn(C)c4c3)ncn2)c(OC)cc1N1CC(C)N(C)C(C)C1 (stereo not drawn) [compound 42] | – |
| 1450 | 69.4 | 59.8 | C=CC(=O)Nc1cc(Nc2cc(-c3ccc4cnn(C)c4c3)ncn2)c(OC)cc1N1CCN(C)[C@H](C)C1 [compound 51] | 20.8 |
| 1130 | 8.8 | 6.9 | C=CC(=O)Nc1cc(Nc2cc(-c3ccc4c(cnn4C)c3)ncn2)c(OC)cc1NCCN(C)C [compound 58] | – |
| 1270 | 10 | 8.9 | C=CC(=O)Nc1cc(Nc2cc(-c3ccc4c(cnn4C)c3)ncn2)c(OC)cc1N1CCN(CCN(C)C)CC1 [compound 59] | – |
| 1620 | 17.8 | 9.4 | C=CC(=O)Nc1cc(Nc2cc(-c3ccc4c(cnn4C)c3)ncn2)c(OC)cc1N(C)CCNC(C)(C)C [compound 61] | – |
| 540 | 4.1 | 6.5 | C=CC(=O)Nc1cc(Nc2cc(-c3ccc4ncsc4c3)ncn2)c(OC)cc1N(C)CCN(C)C [compound 63] | 130.7 |
| 765 | 10.9 | 12 | C=CC(=O)Nc1cc(Nc2cc(-c3ccc4nc(C)sc4c3)ncn2)c(OC)cc1N(C)CCN(C)C [compound 65] | 70.2 |
| 779 | 8.1 | 8.5 | C=CC(=O)Nc1cc(Nc2cc(-c3ccc4c(cnn4C)c3)ncn2)c(OCC)cc1N(C)C1CCN(C)C1 (stereo not drawn) [compound 66] | 96.2 |
| 891 | 14.6 | 15 | C=CC(=O)Nc1cc(Nc2cc(-c3ccc4c(cnn4C)c3)ncn2)c(OC(F)F)cc1N(C)CCN1CCN(C)CC1 [compound 67] | 61.0 |
| 1830 | 13.4 | 10.4 | C=CC(=O)Nc1cc(Nc2cc(-c3ccc4c(cnn4C)c3)ncn2)c(OC)cc1N(C)C1CCCN(C)C1 (stereo not drawn) [compound 69] | 136.8 |
| 2560 | 33.1 | 27.8 | C=CC(=O)Nc1cc(Nc2cc(-c3ccc4c(cnn4C)c3)ncn2)c(OC)cc1N(C)C1CCC(N(C)C)CC1 (stereo not drawn) [compound 71] | 77.3 |
| 1900 | 45.2 | 29.7 | C=CC(=O)Nc1cc(Nc2cc(-c3ccc4c(cnn4C)c3)ncn2)c(OC)cc1N(C)C1CCC(N2CCN(C)CC2)CC1 (stereo not drawn) [compound 72] | 42.1 |
| 1030 | 65.3 | 50.4 | C=CC(=O)Nc1cc(Nc2cc(-c3ccc4cnn(C)c4c3)ncn2)c(OC)cc1N(C)C1CCCN(C)C1 (stereo not drawn) [compound 73] | 15.7 |
| 1150 | 31.9 | 10.6 | C=CC(=O)Nc1cc(Nc2cc(-c3ccc4cnn(C)c4c3)ncn2)c(OC)cc1N(C)C1CCN(C)C1 (stereo not drawn) [compound 74] | 36.0 |
| 1500 | 24.3 | 13.6 | C=CC(=O)Nc1cc(Nc2cc(-c3ccc4c(cnn4C)c3)ncn2)c(OC(C)C)cc1N(C)CCN(C)C [compound 75] | 61.7 |
| 9450 | 87.3 | 57.9 | C=CC(=O)Nc1cc(Nc2cc(-c3ccc4c(cnn4C)c3)ncn2)c(OC)cc1N(C)CCN(C)C(C)=O [compound 76] | 108.3 |
| 1150 | 34.5 | 16.4 | C=CC(=O)Nc1cc(Nc2cc(-c3ccc4cnn(C)c4c3)ncn2)c(OC)cc1N1CCN(CCN(C)C)CC1 [compound 77] | 33.5 |
| 1030 | 61.8 | 47.8 | C=CC(=O)Nc1cc(Nc2cc(-c3ccc4cnn(C)c4c3)ncn2)c(OC)cc1N(C)CCN1CCN(C)CC1 [compound 78] | 16.7 |
